As usually defined, the IC50 is the concentration that gives 50% inhibition.

These results are taken from patent EP3338775B1, “USE OF BUTYLIDENEPHTHALIDE” (Everfront Biotech Inc., priority 2015, dated 2017).

What all share (format): cell-based
Test [1] concerns malignant glioma DBTRG cells. Put plainly: MTT cell viability assay on malignant glioma DBTRG cells. Conditions: 24-hour group. The method, then:
Thereafter, a cell viability assay, MTT assay, was utilized to analyze the viabilities of brain CSCs ^CD133+ and malignant glioma DBTRG cells. […] The results are shown in Figure 1A and Figure 1B for 24-hour group and 48-hour group (i.e., the treatment for 24 hours and 48 hours) and in Table 1 for 24-hour group.

Test [2] relates to brain CSCs ^CD133+. Put plainly: MTT cell viability assay on brain CSCs CD133+. To be noted: 24-hour group, MTT assay; read-out: IC50 to brain CSCs ^CD133+. From the text: Thereafter, a cell viability assay, MTT assay, was utilized to analyze the viabilities of brain CSCs ^CD133+ and malignant glioma DBTRG cells. […]
(In general: Formazan colour is commonly taken as a measure of viable cells.)

Test [3] relates to ALDH. Put plainly: ALDEFLUOR flow cytometry analysis of ALDH activity in HNC-TIC-like oral stem cells. Conditions: DEAB-added group (150 µM DEAB), with or without BP treatment; Figure 8. The method, then: ALDH protein is also an important stemness-maintenance marker of cancer stem cells and participates in the regulation of the self-renewal and differentiation of cancer stem cells. HNC-TIC-like oral stem cells (i.e., ALDH1^+CD44^+-1 cell line or ALDH1^+CD44^+-2 cell line) were treated with different concentrations (0, 25 and 50 µg/ml) of BP for 24 hours, and then, 1 ×10^5 cells obtained from each group were separately suspended in 50 µl of a stem cell detection kit (i.e., ALDEFLUOR array kit, purchased from […] Technologies Inc., Vancouver, Canada) buffer and the cell suspension of each group was separately added with ALDEFLUOR to a final concentration of 1 µM. Thereafter, a sample of each group was stained by […] and then analyzed by flow cytometry analysis to determine the ALDH activity of HNC-TIC-like oral stem cells (i.e., ALDH1^+CD44^+-1 cell line and ALDH1^+CD44^+-2 cell line).
The above experimental procedure was repeated, but the cell suspension of each group was further added with N,N-diethylaminobenzaldehyde (DEAB, i.e., an inhibitor of ALDH) to a final concentration of 150 µM of DEAB separately.
A general note: Flow cytometry measures light scatter and fluorescence of single cells or particles in a stream.

“And” between values parts separate entries of the source, which are not always exact repeats. Equal entries are not always repeated.

On to `Cn1nnc2c(C(N)=O)ncn2c1=O` [TMZ, temozolomide, reference compound], for which the half-inhibitory concentration (IC50) in test [1] is 1.66 mM and 322 µg/mL; in test [2], > 1.6 mM and > 311 µg/mL.

As to `O=NN(CCCl)C(=O)NCCCl` [BCNU, bis-chloroethylnitrosourea], in test [1], the IC50 was 352 µM and 75.4 µg/mL.

As for `CCN(CC)c1ccc(C=O)cc1` [DEAB, N,N-diethylaminobenzaldehyde, reference compound], the “live cells with ALDH activity, of total live cells” value in test [3] is 0.1%.
